Reference: PMC9573353 (Molecules, 2022)
Like-named read-outs stand apart in the source and are kept apart here.

Legend:
[1] = target: Acetylcholinesterase (AChE) (Electrophorus electricus, UniProt O42275); test: biochemical; assay type: biochemical; conditions: mean ± standard deviation, triplicate; '-' = no inhibitory activity
[2] = target: butyrylcholinesterase (BChE) (Equus caballus, UniProt P81908); test: biochemical; assay type: biochemical; conditions: mean ± standard deviation, triplicate
butyrylcholinesterase (BChE), sequence (P81908 whole entry): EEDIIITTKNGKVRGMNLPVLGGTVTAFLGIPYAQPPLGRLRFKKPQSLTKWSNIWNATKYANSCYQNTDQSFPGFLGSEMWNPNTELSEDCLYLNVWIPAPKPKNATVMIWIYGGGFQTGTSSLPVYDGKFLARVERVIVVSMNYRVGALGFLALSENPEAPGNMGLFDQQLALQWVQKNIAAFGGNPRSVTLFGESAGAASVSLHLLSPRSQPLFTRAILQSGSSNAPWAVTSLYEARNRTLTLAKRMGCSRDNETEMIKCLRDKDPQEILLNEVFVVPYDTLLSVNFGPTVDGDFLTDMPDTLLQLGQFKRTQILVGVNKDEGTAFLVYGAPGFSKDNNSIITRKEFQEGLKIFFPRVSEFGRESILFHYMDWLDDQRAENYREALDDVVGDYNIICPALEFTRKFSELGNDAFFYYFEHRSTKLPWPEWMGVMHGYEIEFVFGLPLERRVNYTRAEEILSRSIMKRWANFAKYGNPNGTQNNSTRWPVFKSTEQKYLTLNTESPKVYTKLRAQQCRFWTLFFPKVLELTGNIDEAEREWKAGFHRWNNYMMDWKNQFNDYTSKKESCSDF

[3] = DPPH radical scavenging assay; conditions: 30 min at 25 °C; '-' = did not capture the radical
Procedure: Antioxidant activity of the tested compounds was measured in terms of hydrogen donating or radical scavenging ability using the stable radical 2,2′-diphenyl-1-picrylhydrazyl (DPPH). The 50 μL of various concentrations of tested solutions (5 μM–1000 μM) were placed in a cuvette, 1 mL of ethanolic solution of DPPH was added, and the final DPPH concentration was kept constant (c = 8 × 10^−4 M). The mixture was incubated for 30 min at 25 °C. […] All determinations were performed in triplicate. The concentrations of tested compounds were expressed as final concentrations. Inhibition of DPPH expressed in percentage was calculated according to the equation:(2) Inhibition (%)=AC(0)−AC(t)/AC(0)·100 where AC(0) is the absorbance of the control at t = 0 min, and AC(t) is the absorbance of the antioxidant at t = 30 min. Data were used to calculate the IC50 value by a nonlinear fit of compound concentration values vs. inhibition percentage.

[4] = Protonation constants by potentiometric titration with spectrophotometric detection; assay type: physicochemical; conditions: for Protonation constant lgK1: titration from pH 10, for trans-1 first of two protonation steps
Excerpt: (§1) The third one in this equilibrium system must be a complex between the previous two species. Detailed fitting studies by application of the PSEQUAD program confirmed the existence of a complex with a 1:1 (FeL^2+) composition. Furthermore, the apparent formation constant of these species (for the reaction Fe^3+ + HL ⇌ FeL^2+ + H^+) and the individual spectrum of the species could be estimated by this procedure. […] The apparent formation constant determined from this spectrum series and that regarding the titration with the ligand was lgK’FeL = 4.75 ± 0.10. Using this apparent formation constant, the molar fractions of the free Fe^3+ and the 1:1 complex could be calculated as functions of the (protonated) ligand concentration (pHL), as shown by the inset of Figure 12a. Since the spectrophotometric titration was carried out in an acidic solution, in order to estimate the formation constant for the Fe^3+ + L^− ⇌ FeL^2+ reaction, the protonation constant of the deprotonated ligand (L^−) was also determined (by potentiometric titration, starting from the fully deprotonated form at pH = 10, Figure 13), lgK1 = 7.81 ± 0.15. The sum of the apparent formation constant and the protonation constant gives the equilibrium constant regarding the reaction above (lgKFeL = 12.56 ± 0.15).
(§2) The protonation and complex formation constants were determined similarly for the other three compounds. The corresponding figures can be found in the Supplementary Materials (Figures S67 and S68 for cis-2, Figures S69 and S70 for cis-4, and Figures S71 and S72 for trans-1). In the case of trans-1, two protonation steps were observed due to the two OH groups. For calculating the formation constant, lgK2 was taken into account, corresponding to the proton in the OH group on the pyranone ring. This can be exchanged by the Fe^3+ ion easier than the other proton in the phenolic moiety.
A 0.01–0.01 M phosphate–borate–acetate buffer solution was used for potentiometric titration. A 50 cm^3 beaker was filled with 25 cm^3 of buffer solution containing the appropriate amount of ligand, and the pH was adjusted to 10.0 by adding 2 M NaOH solution. The pH was determined using a Consort C3010 multi-parameter analyzer (Consort bvba, Turnhout, Belgium) equipped with a combined glass electrode. The solution was circulated with an IKA PA-SF (IKA Labortechnik, Staufen, Germany) peristaltic pump through a Hellma (176.000-QS 10 mm) flow through the cuvette. Titration was carried out with 6 M H2SO4 solution. The spectra were recorded with a Specord S600 spectrophotometer after pH stabilization.

[5] = Fe3+ complex formation constants by spectrophotometric titration (PSEQUAD); assay type: physicochemical; conditions: for Apparent formation constant lgK'FeL, Fe^3+ + HL ⇌ FeL^2+ + H^+: 1:1 complex; for Formation constant lgKFeL, Fe^3+ + L^− ⇌ FeL^2+: sum of apparent formation constant and protonation constant
Procedure: Since Fe^3+ ions strongly hydrolyze, acidic solutions were applied for the spectrophotometric titrations to determine the complex formation constants. Both types of titrations were carried out: increasing the iron(III) concentration at constant ligand concentration and increasing ligand concentration at constant CFe(III).
as §1, §2
Two titration series were used to determine the stability constants of equilibrium systems containing Fe^3+ and ligand. The iron(III) content was increased at constant ligand content, the ligand concentration was increased at constant Fe(III) content, and the spectral changes were recorded with a Specord S600 spectrophotometer (Analytic Jena GmbH, Jena, Germany) in the 190–900 nm wavelength range. […] The two series were evaluated together using PSEQUAD software in the 210–430 nm range.

[6] = previously tested; read-out: DPPH IC50; cited from earlier work

Acetylcholinesterase (AChE), sequence (O42275 24-633): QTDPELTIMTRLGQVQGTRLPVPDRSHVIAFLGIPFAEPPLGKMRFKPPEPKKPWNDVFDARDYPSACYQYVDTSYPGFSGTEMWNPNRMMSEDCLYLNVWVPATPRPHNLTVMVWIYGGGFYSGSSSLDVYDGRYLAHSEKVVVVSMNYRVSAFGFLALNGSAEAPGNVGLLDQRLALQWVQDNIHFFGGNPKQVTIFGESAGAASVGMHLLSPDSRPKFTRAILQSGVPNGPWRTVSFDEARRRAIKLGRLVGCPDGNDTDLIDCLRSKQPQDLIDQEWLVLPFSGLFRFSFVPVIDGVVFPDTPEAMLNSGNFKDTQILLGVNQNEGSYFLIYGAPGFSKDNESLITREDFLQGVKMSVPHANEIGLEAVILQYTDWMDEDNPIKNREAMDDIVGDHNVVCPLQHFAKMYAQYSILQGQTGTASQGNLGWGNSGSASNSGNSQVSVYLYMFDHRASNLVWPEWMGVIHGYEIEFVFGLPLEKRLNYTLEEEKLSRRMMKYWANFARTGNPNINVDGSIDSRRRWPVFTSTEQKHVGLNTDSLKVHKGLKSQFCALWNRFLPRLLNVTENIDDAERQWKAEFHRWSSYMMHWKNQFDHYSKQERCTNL

Compound	IC50 [1]	IC50 [2]	IC50 [3]	Protonation constant lgK1 [4]	Apparent formation constant lgK'FeL, Fe^3+ + HL ⇌ FeL^2+ + H^+ ([5]; acidic solution)	Formation constant lgKFeL, Fe^3+ + L^− ⇌ FeL^2+ [5]	AChE IC50 [1]	BChE IC50 [2]	DPPH IC50 [3]	IC50 [6]	Protonation constant lgK2 ([4]; trans-1: proton of the OH group on the pyranone ring)	Formation constant lgKFeHL, Fe^3+ + H2L ⇌ FeHL^2+ + H^+ ([5]; acidic solution, footnote a)	Formation constant lgKFeHL, Fe^3+ + HL^− ⇌ FeHL^2+ ([5]; calculated with lgK2, footnote b)
O=c1cc(/C=C\c2ccc(Cl)cc2Cl)occ1O [cis-4, (Z)-2-(2,4-dichlorostyryl)-5-hydroxy-4H-pyran-4-one]	1000 ± 10.1 µM	638 ± 25.8 µM	> 1000 µM	7.99 ± 0.15	4.16 ± 0.10	12.15 ± 0.15	–	–	–	–	–	–	–
O=c1cc(C=Cc2cccs2)occ1O [compound 7, 5-hydroxy-2-(2-(thiophen-2-yl)vinyl)-4H-pyran-4-one]	–	–	–	–	–	–	completely missed any tested bioactivity	completely missed any tested bioactivity	completely missed any tested bioactivity	–	–	–	–
O=c1cc(/C=C\c2ccccc2C(F)(F)F)occ1O [cis-2, (Z)-5-hydroxy-2-(2-(trifluoromethyl)styryl)-4H-pyran-4-one]	> 1000 µM	458 ± 30.2 µM	> 1000 µM	7.95 ± 0.10	4.38 ± 0.20	–	–	–	–	–	–	–	–
Oc1ccc(/C=C/c2cccs2)c(O)c1 [III]	46.6 ± 8.3 µM	5.3 ± 1.8 µM	–	–	–	–	–	–	–	26.8 µM	–	–	–
O=c1cc(/C=C/c2ccsc2)occ1O [trans-6, (E)-5-hydroxy-2-(2-(thiophen-3-yl)vinyl)-4H-pyran-4-one]	> 1000 µM	426 ± 41.8 µM	> 1000 µM	7.81 ± 0.15	4.75 ± 0.10	12.56 ± 0.15	–	–	–	–	–	–	–
O=c1cc(/C=C/c2ccccc2O)occ1O [trans-1, (E)-5-hydroxy-2-(2-hydroxystyryl)-4H-pyran-4-one]	> 1000 µM	601 ± 34.5 µM	251 ± 45.6 µM	8.9 ± 0.20	–	–	–	–	–	–	7.25 ± 0.20	4.38 ± 0.20 ^a	11.6 ± 0.2 ^b
Oc1ccccc1/C=C/c1cccs1 [II]	15.7 ± 1 µM	4.6 ± 0.1 µM	–	–	–	–	–	–	–	159 µM	–	–	–
